This experiment deals with T1, NAPE-PLD (Homo sapiens, UniProt Q6IQ20).
T1 construct: made in house; host or cells: baculovirus/insect cells, pDEST8.1 vector; purified by metal chelating chromatography
T1 sequence (Q6IQ20 with tags, fused parts or gaps): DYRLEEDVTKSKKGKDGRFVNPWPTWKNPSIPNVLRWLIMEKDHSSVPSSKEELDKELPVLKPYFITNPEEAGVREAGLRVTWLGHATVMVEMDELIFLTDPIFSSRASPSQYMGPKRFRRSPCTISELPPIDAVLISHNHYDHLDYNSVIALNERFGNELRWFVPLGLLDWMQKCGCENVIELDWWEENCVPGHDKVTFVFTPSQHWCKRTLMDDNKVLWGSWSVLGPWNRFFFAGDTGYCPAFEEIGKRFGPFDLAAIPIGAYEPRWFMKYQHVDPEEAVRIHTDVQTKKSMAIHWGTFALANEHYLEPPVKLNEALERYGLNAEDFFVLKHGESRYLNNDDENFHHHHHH
As to the kind of experiment: NAPE-PLD PED6 fluorescence assay, Km determination. It is filed as biochemical. The conditions noted are these: substrate PED6 with NAPE-PLD; FIG. 8. The protocol: General assay conditions use the following final concentrations of the following material: NAPE-PLD at 14 nM, PED6 (substrate) at 10 μM, test compounds at 10 μM, DMSO at 1%. PED6 is purchased (see Table 1) as a lyophilized powder and stored at −20° C. A fresh substrate solution should be prepared daily. 1 mg of PED6 is dissolved in 0.88 ml of ethyl acetate and diluted into 43.12 ml assay buffer to make is a 20 μM working solution. PED6 must be kept out of direct light, as it is light sensitive.
Test compounds are diluted in an appropriate buffer. A non-limiting example is 50 mM Tris-HCl, pH 8.0, the buffer may contain DMSO, for instance, 10% DMSO. Assay buffer was 50 mM Tris-HCl, pH 8.0, 0.05% Triton X-100 and stop solution is 0.4 M HCl, 0.05% Triton X-100.
Order of addition of reagents and equipment used: • 1) Dilute enzyme (NAPE-PLD, 22 μM) to 28 nM in assay buffer. • 2) Prepare substrate (20 μM in assay buffer). • 3) Add 10 μl NAPE-PLD to assay plate using FLEXDROP. • 4) Add 2 μl compound (from compound plate) to appropriate wells of assay plate using Cy-Bio. • 5) Incubate plates, covered, at room temperature for 30 minutes (compound preincubation). • 6) Add 10 μl PED6 to assay plate using FLEXDROP. • 7) Incubate plates, covered, at room temperature for 30 minutes (enzyme reaction) • 8) Terminate the reaction by adding 20 μl of stop solution, using FLEXDROP • 9) Read on LJL Acquest. […]

As usually defined, the Km is the concentration of substrate that gives half-maximal velocity. Consider `CCCCCCCCCCCCCCCC(=O)OC[C@H](COP(=O)(O)OCCNC(=O)CCCCCNc1ccc([N+](=O)[O-])cc1[N+](=O)[O-])OC(=O)CCCCC1=[N+]2C(=Cc3c(C)cc(C)n3[B-]2(F)F)C=C1` [PED6], for which the Km came to 3.9 µM.

Values taken from patent US20100143937A1 (priority 2007, published 2010).
